Results on 1 compound are retold here after patent publication US20040087561A1, “Treatment of sexual dysfunction” (priority 2000, published 2004).

Data set [1] concerns conscious male rat. Briefly: Penile intracavernosal pressure in the conscious male rat (telemetry). Type of data set: in vivo. The procedure:
In addition to treating women with FSD, bombesin antagonists will be useful in treating male erectile dysfunction (MED. Both the non-selective BB1/2 antagonists (Compound 1; 10 mg/kg sc) and the selective BB I receptor antagonist (Compound 3; 15 mg/kg sc) is pro-erectile in a conscious rat model of penile erection (FIGS. 24 and 25). Erectile responses were recorded by measuring intracavemosal pressure using surgically implanted telemetric device. The specific details the surgical procedures, data acquisition and analysis can be found in detail in Bernabe 1999.
Compound 1 and compound 3 were dissolved in 50% O-cyclodextrin in saline. They were administered at a dose of 15 mg/kg subcutaneously (sc). […] These increases equate to penile erection. Both Compounds 1 and 3 induced a number of erections in a similar manner to those observed with apomorphine or melanotan-II—both of which are clinically proven agents that are effective in the treatment of MED. Moreover the amplitude of the increases observed were similar to those observed with apomorphine or melanotan-II. The mechanism of action is thought to be similar to the effects on female genital flow ie CNS potentiation of the descending neuronal pathways that control penile erection.

Data set [2] concerns ovariectomised female Sprague Dawley rats. The experiment in a line: Female rat sexual proceptivity (time investigating male vs female stimulus). Type of data set: in vivo. Here is the method:
Ovariectomised adult female Sprague Dawley rats (180-200 g, from Charles River) were housed in groups of 6 in a reversed lighting system of 12 h light:dark (lights off 7.00-19.00 h). Two weeks after ovariectomy they were used for sexual activity tests. The experiments started at least 5 h into the dark period.
Tests were carried out in a circular arena of 90 cm diameter, surrounded by a 30 cm high wall. Two small cages with wire-mesh front (15×15 cm) are fixed into the wall such that the front of the cage is <> with the wall and the 2 cages are opposite each other. They contained two stimuli animals: an intact sexually experienced male and a receptive female (ovariectomised, primed with 5 μg oestradiol benzoate dissolved in corn oil and injected subcutaneously 48 hours before the test and with 0.5 mg of progesterone four hours before the test). Sexually naive test and control animals were used. Forty eight hours before the tests, both the test and control animals were primed with 5 μg oestradiol benzoate. For animals used as positive controls, progesterone (0.5 mg/0.1 ml) was dissolved in corn oil and administered subcutaneously (s.c.), 4 h before the test. Test and control animals were introduced one at a time for 10 minute periods into the arena. During the 10 min test, the time that the test or positive control animal spent investigating each stimulus animal was noted. The arena was thoroughly cleaned between animals. The position of the male/female stimuli boxes was randomised between animals, in order to avoid place preference. The difference in the percentage of time spent investigating the male minus the female stimuli was calculated, out of the total time spent investigating stimuli animals.
Compound (1) was dissolved in 100% β-cyclodextrin and then diluted with saline to a final solution of 50% 2-hydroxypropyl-β-cyclodextrin. It was administered intraperitoneally (i.p.) at doses of 3 and 10 mg/kg, in a dosing volume of 1 ml/kg, 1 h before tests. Progesterone (0.5 mg/0.1 ml) was dissolved in corn oil and administered subcutaneously (s.c.), 4 h before test, as a positive control.
Ovariectomised adult female Sprague Dawley rats (180-200 g) were housed in groups of 5 in a reversed lighting system of 12 h light:dark (lights off 5.00-17.00 h). They were used for the experiments at least two weeks after ovariectomy. Forty eight hours before tests, the animals were primed with oestradiol benzoate (5 μg/0.1 ml in corn oil, s.c.). On day 1, progesterone (0.5 mg/0.1 ml, in corn oil, s.c.) was administered to one of the groups 4 h before tests, as a positive control. Compound (1) (15 mg/kg, i.p.) was administered in 50% 2-hydroxypropyl-β-cyclodextrin, 1 h before tests. The test lasted 10 minutes and was carried out as described before. The difference in the percentage of time spent investigating the male minus the female stimuli was calculated, out of the total time spent investigating stimuli animals. Animals were submitted to a test on day 1 and on day 15. From day 2 to 14 the Compound (1) group received a daily injection of the compound (15 mg/kg, i.p.), while both the vehicle and the progesterone groups received an injection of vehicle. On day 15 the test took place again, as described for day 1.
Ovariectomised female rats (Sprague Dawley, obtained from Charles River, UK) were stereotaxically implanted (coordinates 0.89 mm behind Bregma, 1.3 mm lateral and 2.5 mm vertical) with stainless steel cannulae (6 mm long, O.D. 0.75 mm), held in place with dental cement. Animals were housed in groups of three and returned to a reversed lighting system of 12 h light:dark (lights off 5.00-17.00 h). Correct placement of the cannulae was assessed post-mortem. Rats were used for tests two weeks after ovariectomy (one week after cannulation). The experiments started at least 5 h into the dark period. […]

As for `COc1ccc(C2(CNC(=O)[C@](C)(Cc3c[nH]c4ccccc34)NC(=O)Nc3ccc([N+](=O)[O-])cc3)CCCCC2)nc1` [Compound (1), (S) 3-(1H-Indol-3-yl)-N-[1-(5-methoxy-pyridin-2-yl)-cyclohexyl-methyl]-2-methyl-2-[3-(4-nitro-phenyl)-ureido]-propionamide], in data set [1] (Compound 1 10 mg/kg sc, Compound 3 15 mg/kg sc, conscious rat model), the “penile erection (erectile response)” value is on record as “pro-erectile”. The intracavernosal pressure entry in data set [1] (one hour after 10 mg/kg sc Compound 1, 45 minutes after 15 mg/kg sc compound 3, conscious rat) is “significant increases in intracavernosal pressure”. The “effect on proceptivity, day 1” value in data set [2] (day 1, Compound (1) 15 mg/kg i.p. 1 h before, progesterone 0.5 mg/0.1 ml s.c. 4 h before, vs vehicle, P<0.01) is given as “stimulatory effect on proceptivity”. Besides, the “MED, percentage of time spent investigating the male stimulus (proceptivity)” value in data set [2] (i.c.v., 3-30 μg/rat, 10 min before test) was determined as 10 µg; in data set [2] (i.p., 3 and 10 mg/kg, 1 h before test, 50% 2-hydroxypropyl-β-cyclodextrin), 10 mg/kg. Moreover, the “percentage of time spent investigating the male stimulus (proceptivity)” value in data set [2] (i.c.v., dose-dependently 3-30 μg/rat, 10 min before test) was “increased the percentage of time spent investigating the male stimulus”; in data set [2] (i.p., dose-dependently 3 mg/kg-10 mg/kg, 1 h before test, vs vehicle), “increased the percentage of time spent investigating the male stimulus”. In data set [2] (repeated administration 15 mg/kg i.p. daily for 15 days), the “body weight or general behaviour” value is recorded as “no changes in body weight or general behaviour”.
